Assay results reported in US8835403B2, “Algin oligosaccharides and the derivatives thereof as well as the manufacture and the use of the same” (priority 2004, dated 2014).

What was measured:
GSH-PX = GSH-PX activity in cerebral cortex and hippocampus of Aβ1-40-induced AD mice; type: in vivo
Experimental: (§1) Following the behavioral test, rats are decapitated. Cerebral cortex and hippocampus are dissected on ice immediately, and stored at −80° C. after quick freezing in liquid nitrogen for 1 hour. MDA, SOD, GSH-PX, Na^+, K^+-ATPase, AchE and CHAT activities in the brain regions are determined using the respective kits. The homogenates of cerebral cortex and hippocampus are prepared with saline with a final concentration of 10% and 5%. The supernatant were obtained after centrifuging at 3600 rpm to test MDA, CuZn-SOD, GSH-PX, Na^+K^+-ATPase, AchE, and CHAT activities. The activity of ChAT is determined with isotope-labeled method. The other indexes and amount of total proteins are tested with the respective kits supplied by Nanjing Jiancheng Bioengineering Institute.
The GSH-PX activity in cerebral cortex and hippocampus is decreased after usage of Aβ with significant difference to the control group in hippocampus (p<0.05).

[1] = test system: apoptotic cascade induced by Aβ; experiment: Apoptotic cascade markers induced by Aβ; type: cell-based
Na+, K+-ATPase = Na+, K+-ATPase activity in cerebral cortex and hippocampus of Aβ1-40-induced AD mice; type: in vivo
Experimental: as §1

[2] = test system: AD mice induced by Aβ1-40; experiment: Morris water maze test of AD mice induced by Aβ1-40; type: in vivo; details: for Escape latency (s) 1st day: 1st day of test; for Escape latency (s) 2nd day: 2nd day of test; for Escape latency (s) 3rd day: 3rd day of test; for Latency bias(%): probe trial, 4th day, within 60 s
Experimental: Male Balb/c mice (18-22 g, purchased from Laboratory Centre of Shandong University) are weighed and randomly assigned to six groups as follows: a control group, a model group, a low-concentration (15 mg/kg) 6-mer-treated group, a middle-concentration (30 mg/kg) 6-mer-treated group, a high-concentration (60 mg/kg) 6-mer-treated group, and a Huperzine A-treated (HBY, with a concentration of 0.2 mg/kg) group. The mice were oral administered with corresponding drugs on day 3 after grouping. The drugs were administered once a day consecutively with a dosage of 0.5 ml/20 g until the experiment is completed. The mice of control and model groups were simultaneously administered with an equivalent amount of normal saline.
On the 8th day after drug administration, mice are injected with aged Aβ1-40 except the vehicle group as the method of reference (Jhoo J H et al., β-amyloid (1-42)-induced learning and memory deficits in mice: involvement of oxidative burdens in the hippocampus and cerebral cortex. Behavioural Brain Research (2004) 155: 185-196) to induce the AD model. Aged Aβ1-40 solution is injected into the right cerebral ventricle. […] However, on the 1st day of test, this increased escape latency is shortened in all drug-treated groups except the group treated with 15 mg/kg of 6-mer. And the escape latency of 60 mg/kg 6-mer-treated group has statistical significance compared with that of the model group (P<0.05). On the 2nd and 3rd day of test, the escape latency of all drug-treated groups are shortened, wherein that of 60 mg/kg 6-mer-treated group and HBY-treated group have statistical significance compared with that of the model group (P<0.05).
On the 4th day of Morris water maze test, the original plate is removed and the percentage of time of mice staying at the phase of original plate within 60 s is recorded.

SOD = SOD activity of cerebral cortex and hippocampus of Aβ1-40-induced AD mice; type: in vivo
Aβ1-40 fibril = Aβ1-40 fibril (Homo sapiens, UniProt P05067); experiment: Destability of preformed Aβ1-40 fibril (TEM); type: biochemical; details: Aβ1-40 aged 7 d, then 6-mer for additional 3 days (FIG. 10C)
Experimental: 1 mg/ml of distilled water-resolved Aβ1-40 is aged at 37° C. for 7d, after which it is exposed to 6-mer for 3 days.

Aβ = Aβ (Homo sapiens, UniProt P05067); experiment: Binding site of 6-mer on Aβ (further studies)
SH-SY5Y cells = experiment: Protection of SH-SY5Y cells impaired by Aβ25-35 and Aβ1-40; type: cell-based; details: 50 and 100 μg/ml; 30 μM aged Aβ25-35 or 2 μM Aβ1-40 for 48 h (FIG. 7, 8)
Experimental: 6-mer has similar protective effects on neuron cell line SH-SY5Y as the primary neurons. SH-SY5Y impaired with 30 μM of aged Aβ25-35 (FIG. 7) and 2 μM of Aβ1-40 (FIG. 8) for 48 h could induce a series of changes, for example, damage to the cells, reduced number of cells, occurrence of some round cells and suspension cells. Further, the survival rate of the cells is reduced to 73.3±9.4% and 64.1±2.5% respectively.

MDA = MDA content of cerebral cortex and hippocampus of Aβ1-40-induced AD mice; type: in vivo
[3] = test system: human pancreatic beta-cells cell line NIT; experiment: Protection of pancreatic beta-cell line NIT impaired by amylin (MTT); type: cell-based; details: 6-mer 10, 50, 100 μg/ml 24 h pretreatment, 30 μM aged amylin 48 h (FIG. 12)
Experimental: The human pancreatic beta-cells cell line NIT is cultured with DMEM medium containing 10% FBS. The cells are incubateded into 96-well plates in density of 1×10^4 cells/well. The day after plating, they are pretreated with varying concentrations of 6-mer (final concentration of 0, 10, 50, 100 μg/ml) for 24 h, followed by the addition of aged amylin with a final concentration of 30 μM. After 48 h at 37° C., the survival of the cells is measured by MTT method.

Aβ1-40 = biological target: T1, Aβ1-40 (Homo sapiens, UniProt P05067); experiment: Fibril formation of Aβ1-40 studied with TEM; type: biochemical
T1 construct: Fresh Aβ1-40 is incubated alone or with 6-mer
T1 sequence (P05067 672-711 limits assumed): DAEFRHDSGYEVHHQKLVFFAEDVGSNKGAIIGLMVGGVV

Aβ1-40 fibril, sequence (P05067 672-711 limits assumed): as above

Compound: O=C(O)C1OC(OC2C(C(=O)O)OC(OC3C(C(=O)O)OC(OC4C(C(=O)O)OC(OC5C(C(=O)O)OC(OC6C(C(=O)O)OC(O)C(O)C6O)C(O)C5O)C(O)C4O)C(O)C3O)C(O)C2O)C(O)C(O)C1O (stereo not shown) [6-mer, mannuronic hexasaccharide]
- GSH-PX (U/mg prot.) cerebral cortex (GSH-PX; 15 mg/kg): 8.53 ± 0.86 U/mg prot.
- GSH-PX (U/mg prot.) cerebral cortex (GSH-PX; 30 mg/kg): 7.12 ± 1.10 U/mg prot.
- GSH-PX (U/mg prot.) cerebral cortex (GSH-PX; 60 mg/kg): 10.75 ± 1.80 U/mg prot.
- GSH-PX (U/mg prot.) hippocampus (GSH-PX; 15 mg/kg): 4.13 ± 0.58 U/mg prot.
- GSH-PX (U/mg prot.) hippocampus (GSH-PX; 30 mg/kg): 4.25 ± 0.54 U/mg prot.
- GSH-PX (U/mg prot.) hippocampus (GSH-PX; 60 mg/kg): 4.81 ± 0.95 U/mg prot.
- expression of Bcl-2 [1]: up-regulating
- expression of Caspase-3 [1]: down-regulating
- expression of P53 [1]: down-regulating
- overload of intracellular calcium ion and ROS accumulation [1]: reversing
- ATPase activity (μmol Pi/mg prot./hour) cerebral cortex (Na+, K+-ATPase; 15 mg/kg): 1.08 ± 0.06 μmol Pi/mg prot./hour
- ATPase activity (μmol Pi/mg prot./hour) cerebral cortex (Na+, K+-ATPase; 30 mg/kg): 1.09 ± 0.08 μmol Pi/mg prot./hour
- ATPase activity (μmol Pi/mg prot./hour) cerebral cortex (Na+, K+-ATPase; 60 mg/kg): 1.08 ± 0.05 μmol Pi/mg prot./hour
- ATPase activity (μmol Pi/mg prot./hour) hippocampus (Na+, K+-ATPase; 15 mg/kg): 2.10 ± 0.29 μmol Pi/mg prot./hour
- ATPase activity (μmol Pi/mg prot./hour) hippocampus (Na+, K+-ATPase; 30 mg/kg): 2.07 ± 0.23 μmol Pi/mg prot./hour
- ATPase activity (μmol Pi/mg prot./hour) hippocampus (Na+, K+-ATPase; 60 mg/kg): 2.52 ± 0.25 μmol Pi/mg prot./hour
- Escape latency (s) 1st day ([2]; 6-mer 15 mg/kg oral once a day): 90.07 ± 10.71 s
- Escape latency (s) 2nd day ([2]; 6-mer 15 mg/kg oral once a day): 83.29 ± 9.53 s
- Escape latency (s) 3rd day ([2]; 6-mer 15 mg/kg oral once a day): 72.83 ± 12.50 s
- Escape latency (s) 1st day ([2]; 6-mer 30 mg/kg oral once a day): 77.71 ± 8.69 s
- Escape latency (s) 2nd day ([2]; 6-mer 30 mg/kg oral once a day): 71.69 ± 10.11 s
- Escape latency (s) 3rd day ([2]; 6-mer 30 mg/kg oral once a day): 68.45 ± 14.46 s
- Escape latency (s) 1st day ([2]; 6-mer 60 mg/kg oral once a day): 56.92 ± 9.92 s
- Escape latency (s) 2nd day ([2]; 6-mer 60 mg/kg oral once a day): 63.57 ± 10.54 s
- Escape latency (s) 3rd day ([2]; 6-mer 60 mg/kg oral once a day): 62.50 ± 13.10 s
- Latency bias(%) ([2]; 15 mg/kg): 19.67 ± 5.15%
- Latency bias(%) ([2]; 30 mg/kg): 22.99 ± 5.79%
- Latency bias(%) ([2]; 60 mg/kg): 28.44 ± 6.08 %
- SOD activity (NU/mg prot.) cerebral cortex (SOD; 15 mg/kg): 49.35 ± 2.27 NU/mg prot.
- SOD activity (NU/mg prot.) cerebral cortex (SOD; 30 mg/kg): 51.84 ± 2.07 NU/mg prot.
- SOD activity (NU/mg prot.) cerebral cortex (SOD; 60 mg/kg): 57.50 ± 2.51 NU/mg prot.
- SOD activity (NU/mg prot.) hippocampus (SOD; 15 mg/kg): 69.76 ± 6.12 NU/mg prot.
- SOD activity (NU/mg prot.) hippocampus (SOD; 30 mg/kg): 61.72 ± 4.27 NU/mg prot.
- SOD activity (NU/mg prot.) hippocampus (SOD; 60 mg/kg): 79.97 ± 7.34 NU/mg prot.
- effect on preformed Aβ1-40 fibers (TEM) (Aβ1-40 fibril): turned into small irregular short fibers
- binding site on Aβ25-35 (Aβ): Ser26˜Lys28
- neurotoxicity of Aβ (survival rate, suspension cells) (SH-SY5Y cells): significantly inhibit the neurotoxicity of Aβ
- MDA content (nmol/ml) cerebral cortex (MDA; 15 mg/kg): 1.79 ± 0.15 nmol/mL
- MDA content (nmol/ml) cerebral cortex (MDA; 30 mg/kg): 1.87 ± 0.18 nmol/mL
- MDA content (nmol/ml) cerebral cortex (MDA; 60 mg/kg): 1.47 ± 0.11 nmol/mL
- MDA content (nmol/ml) hippocampus (MDA; 15 mg/kg): 4.28 ± 0.82 nmol/mL
- MDA content (nmol/ml) hippocampus (MDA; 30 mg/kg): 2.48 ± 0.43 nmol/mL
- MDA content (nmol/ml) hippocampus (MDA; 60 mg/kg): 2.18 ± 0.43 nmol/mL
- survived cells impaired by amylin [3]: increase the survived cells impaired by amylin in a dose-dependent manner
- fibril formation of Aβ1-40 (TEM) (Aβ1-40; incubation 24 h and 48 h (FIG. 9)): significantly inhibit the fibril formation of Aβ1-40
- fibril formation of Aβ1-40 facilitated by heparin (TEM) (Aβ1-40; with heparin, 24 h and 48 h (FIG. 9)): significant inhibitory effect
